Reference: PubChem BioAssay (NCI)
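Exposure lasted 48 hours, with cells grown in 96-well plates and compounds tested at five concentrations. GI50: concentration for 50% inhibition of growth. Definition used: TGI = concentration required for complete inhibition of growth.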

Experiments:
Test in all cases: NCI-60 cell line screen, 48 h
SN12C renal = tested on: SN12C renal
CAKI-1 renal = tested on: CAKI-1 renal
HOP-92 NSCLC = tested on: HOP-92 NSCLC
BT-549 breast = tested on: BT-549 breast
NCI-H460 lung = tested on: NCI-H460 lung
SF-268 CNS = tested on: SF-268 CNS
MDA-MB-435 = tested on: MDA-MB-435
CCRF-CEM leukemia = tested on: CCRF-CEM leukemia
SK-MEL-28 melanoma = tested on: SK-MEL-28 melanoma
SW-620 colon = tested on: SW-620 colon
LOX IMVI melanoma = tested on: LOX IMVI melanoma
NCI-H226 lung = tested on: NCI-H226 lung
HOP-62 NSCLC = tested on: HOP-62 NSCLC
UO-31 renal = tested on: UO-31 renal
HCT-116 colon = tested on: HCT-116 colon
RXF 393 renal = tested on: RXF 393 renal
SNB-75 CNS = tested on: SNB-75 CNS
T-47D breast = tested on: T-47D breast
HS 578T breast = tested on: HS 578T breast
U251 CNS = tested on: U251 CNS
SK-MEL-5 melanoma = tested on: SK-MEL-5 melanoma
MOLT-4 leukemia = tested on: MOLT-4 leukemia
SR leukemia = tested on: SR leukemia
MALME-3M melanoma = tested on: MALME-3M melanoma
UACC-62 melanoma = tested on: UACC-62 melanoma
SK-MEL-2 melanoma = tested on: SK-MEL-2 melanoma
COLO 205 colon = tested on: COLO 205 colon
A549 NSCLC = tested on: A549 NSCLC
ACHN renal = tested on: ACHN renal
IGROV1 ovarian = tested on: IGROV1 ovarian
A498 renal = tested on: A498 renal
OVCAR-3 ovarian = tested on: OVCAR-3 ovarian
MCF7 breast = tested on: MCF7 breast
RPMI-8226 leukemia = tested on: RPMI-8226 leukemia
SF-295 CNS = tested on: SF-295 CNS
HL-60(TB) leukemia = tested on: HL-60(TB) leukemia
NCI/ADR-RES ovarian = tested on: NCI/ADR-RES ovarian
M14 melanoma = tested on: M14 melanoma
OVCAR-5 ovarian = tested on: OVCAR-5 ovarian
EKVX NSCLC = tested on: EKVX NSCLC
NCI-H522 lung = tested on: NCI-H522 lung
PC-3 prostate = tested on: PC-3 prostate
KM12 colon = tested on: KM12 colon
DU-145 prostate = tested on: DU-145 prostate
UACC-257 melanoma = tested on: UACC-257 melanoma
HCC-2998 colon = tested on: HCC-2998 colon
MDA-MB-231 breast = tested on: MDA-MB-231 breast
786-0 renal = tested on: 786-0 renal
HT29 colon = tested on: HT29 colon
SK-OV-3 ovarian = tested on: SK-OV-3 ovarian
HCT-15 colon = tested on: HCT-15 colon
OVCAR-8 ovarian = tested on: OVCAR-8 ovarian
K-562 leukemia = tested on: K-562 leukemia
SNB-19 CNS = tested on: SNB-19 CNS
SF-539 CNS = tested on: SF-539 CNS
NCI-H23 lung = tested on: NCI-H23 lung
OVCAR-4 ovarian = tested on: OVCAR-4 ovarian
TK-10 renal = tested on: TK-10 renal

COC(=O)C1C(O)C(C)C(=O)C(C)/C=C\C=C(C)C(=O)Nc2c(C)c(OC(C)=O)c3c(c2O)C(=O)C(C)=C2OCOC(=C23)C(C)=CC(C)(O)C(O)C(C)C1O (stereo not given)
TGI (SN12C renal): > 100 µM | TGI (CAKI-1 renal): > 100 µM | TGI (HOP-92 NSCLC): > 100 µM | TGI (BT-549 breast): > 100 µM | TGI (NCI-H460 lung): 93.5 µM | TGI (SF-268 CNS): > 100 µM | TGI (MDA-MB-435): > 100 µM | TGI (CCRF-CEM leukemia): 54.2 µM | TGI (SK-MEL-28 melanoma): 60.3 µM | TGI (SW-620 colon): > 100 µM | TGI (LOX IMVI melanoma): 57.8 µM | TGI (NCI-H226 lung): > 100 µM | TGI (HOP-62 NSCLC): > 100 µM | TGI (UO-31 renal): > 100 µM | TGI (HCT-116 colon): 63.9 µM | TGI (RXF 393 renal): > 100 µM | TGI (SNB-75 CNS): > 100 µM | TGI (T-47D breast): > 100 µM | TGI (HS 578T breast): > 100 µM | TGI (U251 CNS): > 100 µM | TGI (SK-MEL-5 melanoma): 27.6 µM | TGI (MOLT-4 leukemia): > 100 µM | TGI (SR leukemia): 87 µM | TGI (MALME-3M melanoma): 49.8 µM | TGI (UACC-62 melanoma): 44.2 µM | TGI (SK-MEL-2 melanoma): 86.1 µM | TGI (COLO 205 colon): 49.3 µM | TGI (A549 NSCLC): 61.2 µM | TGI (ACHN renal): > 100 µM | TGI (IGROV1 ovarian): 58.3 µM | TGI (A498 renal): 82.2 µM | TGI (OVCAR-3 ovarian): > 100 µM | TGI (MCF7 breast): 90.6 µM | TGI (RPMI-8226 leukemia): > 100 µM | TGI (SF-295 CNS): > 100 µM | TGI (HL-60(TB) leukemia): 48.4 µM | TGI (NCI/ADR-RES ovarian): > 100 µM | TGI (M14 melanoma): 65.9 µM | TGI (OVCAR-5 ovarian): > 100 µM | TGI (EKVX NSCLC): > 100 µM | TGI (NCI-H522 lung): > 100 µM | TGI (PC-3 prostate): > 100 µM | TGI (KM12 colon): > 100 µM | TGI (DU-145 prostate): 28.2 µM | TGI (UACC-257 melanoma): 32.9 µM | TGI (HCC-2998 colon): 53.2 µM | TGI (MDA-MB-231 breast): > 100 µM | TGI (786-0 renal): > 100 µM | TGI (HT29 colon): 70 µM | TGI (SK-OV-3 ovarian): > 100 µM | TGI (HCT-15 colon): 45.6 µM | TGI (OVCAR-8 ovarian): > 100 µM | TGI (K-562 leukemia): 49.4 µM | TGI (SNB-19 CNS): > 100 µM | TGI (SF-539 CNS): > 100 µM | TGI (NCI-H23 lung): 35 µM

COc1ccc(-c2c(-c3cc(OC)c(OC)c(OC)c3)nc3sc(C4CC4)nn23)cc1OC
GI50 (SN12C renal): 10.7 µM | TGI (SN12C renal): > 100 µM | GI50 (CAKI-1 renal): 0.943 µM | TGI (CAKI-1 renal): > 100 µM | GI50 (HOP-92 NSCLC): 0.58 µM | TGI (HOP-92 NSCLC): 9 µM | GI50 (BT-549 breast): 10.2 µM | TGI (BT-549 breast): > 100 µM | GI50 (NCI-H460 lung): 11.9 µM | TGI (NCI-H460 lung): > 100 µM | GI50 (SF-268 CNS): 32.8 µM | TGI (SF-268 CNS): > 100 µM | GI50 (MDA-MB-435): 6.81 µM | TGI (MDA-MB-435): > 100 µM | GI50 (CCRF-CEM leukemia): 7.81 µM | TGI (CCRF-CEM leukemia): > 100 µM | GI50 (SK-MEL-28 melanoma): 5.83 µM | TGI (SK-MEL-28 melanoma): > 100 µM | GI50 (SW-620 colon): 13.2 µM | TGI (SW-620 colon): > 100 µM | GI50 (LOX IMVI melanoma): 3.27 µM | TGI (LOX IMVI melanoma): > 100 µM | GI50 (NCI-H226 lung): 16.3 µM | TGI (NCI-H226 lung): > 100 µM | GI50 (HOP-62 NSCLC): 1.58 µM | TGI (HOP-62 NSCLC): > 100 µM | GI50 (UO-31 renal): 1.42 µM | TGI (UO-31 renal): 90.5 µM | GI50 (HCT-116 colon): 4.79 µM | TGI (HCT-116 colon): > 100 µM | GI50 (RXF 393 renal): 5.46 µM | TGI (RXF 393 renal): 43 µM | GI50 (SNB-75 CNS): 0.641 µM | TGI (SNB-75 CNS): > 100 µM | GI50 (T-47D breast): 1.51 µM | TGI (T-47D breast): 30.5 µM | GI50 (HS 578T breast): 4.19 µM | TGI (HS 578T breast): > 100 µM | GI50 (U251 CNS): 8.15 µM | TGI (U251 CNS): > 100 µM | GI50 (SK-MEL-5 melanoma): 2.39 µM | TGI (SK-MEL-5 melanoma): 15 µM | GI50 (MOLT-4 leukemia): 9.94 µM | TGI (MOLT-4 leukemia): 72 µM | GI50 (SR leukemia): 3.73 µM | TGI (SR leukemia): > 100 µM | GI50 (MALME-3M melanoma): 18.1 µM | TGI (MALME-3M melanoma): 75.2 µM | GI50 (UACC-62 melanoma): 1.94 µM | TGI (UACC-62 melanoma): 40.4 µM | GI50 (SK-MEL-2 melanoma): 7.52 µM | TGI (SK-MEL-2 melanoma): 50.8 µM | GI50 (COLO 205 colon): 3.11 µM | TGI (COLO 205 colon): 20.2 µM | GI50 (A549 NSCLC): 8.29 µM | TGI (A549 NSCLC): > 100 µM | GI50 (ACHN renal): 2.99 µM | TGI (ACHN renal): 42.6 µM | GI50 (IGROV1 ovarian): 5.28 µM | TGI (IGROV1 ovarian): > 100 µM | GI50 (A498 renal): 0.75 µM | TGI (A498 renal): 7.84 µM | GI50 (OVCAR-3 ovarian): 7.11 µM | TGI (OVCAR-3 ovarian): > 100 µM | GI50 (MCF7 breast): 1.96 µM | TGI (MCF7 breast): > 100 µM | GI50 (RPMI-8226 leukemia): 3 µM | TGI (RPMI-8226 leukemia): 19.6 µM | GI50 (SF-295 CNS): 6.11 µM | TGI (SF-295 CNS): > 100 µM | GI50 (HL-60(TB) leukemia): 1.68 µM | TGI (HL-60(TB) leukemia): 41.6 µM | GI50 (NCI/ADR-RES ovarian): 7.35 µM | TGI (NCI/ADR-RES ovarian): > 100 µM | GI50 (M14 melanoma): 6.42 µM | TGI (M14 melanoma): > 100 µM | GI50 (OVCAR-5 ovarian): 6.18 µM | TGI (OVCAR-5 ovarian): > 100 µM | GI50 (OVCAR-4 ovarian): 3.26 µM | TGI (OVCAR-4 ovarian): > 100 µM | GI50 (TK-10 renal): 2.6 µM | TGI (TK-10 renal): 37.3 µM | GI50 (NCI-H522 lung): 1.7 µM | TGI (NCI-H522 lung): 40 µM | GI50 (PC-3 prostate): 9.66 µM | TGI (PC-3 prostate): > 100 µM | GI50 (KM12 colon): 17.5 µM | TGI (KM12 colon): > 100 µM | GI50 (DU-145 prostate): 51.3 µM | TGI (DU-145 prostate): > 100 µM | GI50 (UACC-257 melanoma): 9.68 µM | TGI (UACC-257 melanoma): > 100 µM | GI50 (HCC-2998 colon): 12.3 µM | TGI (HCC-2998 colon): > 100 µM | GI50 (MDA-MB-231 breast): 2.72 µM | TGI (MDA-MB-231 breast): > 100 µM | GI50 (786-0 renal): 4.66 µM | TGI (786-0 renal): > 100 µM | GI50 (HT29 colon): 3.48 µM | TGI (HT29 colon): > 100 µM | GI50 (SK-OV-3 ovarian): 2.9 µM | TGI (SK-OV-3 ovarian): 69 µM | GI50 (HCT-15 colon): 2.42 µM | TGI (HCT-15 colon): 58.3 µM | GI50 (OVCAR-8 ovarian): 6.13 µM | TGI (OVCAR-8 ovarian): > 100 µM | GI50 (K-562 leukemia): 10 µM | TGI (K-562 leukemia): > 100 µM | GI50 (SNB-19 CNS): 9.04 µM | TGI (SNB-19 CNS): > 100 µM | GI50 (SF-539 CNS): 5.62 µM | TGI (SF-539 CNS): > 100 µM | GI50 (NCI-H23 lung): 11.6 µM | TGI (NCI-H23 lung): > 100 µM
